Experimental data reported in US8197860B2, “Method for enhancing nutrient absorption with astragalosides” (Nuliv Holding Inc., priority 2005, dated 2012).

Key:
Type in all cases: cell-based, human
Caco-2 cell monolayer [1] = assay: Tryptophan absorption assay (transport across Caco-2 cell monolayer); set-up: key to * (regulatory effect on tryptophan transport): ↑: the arrows that point up represent the enhancing effect on the tryptophan transport; conditions: for Regulatory effects on the tryptophan transport across the Caco2 cell monolayer: Table 4 summary; for Tryptophan transport rate: concentration from 0.01 μM to 1 mM
Procedure: (§1) To evaluate the effect of the isolated astragaloside compound on the uptake of nutrient substances across the intestinal lumen, Caco-2 cells were grown on permeable filter as an experimental model. Caco2 cells originate from human colonic adenocarcinoma and spontaneously differentiate into an enterocyte-like phenotype after two weeks. The Caco-2 cell line, derived from a human colorectal carcinoma, has been used as an in vitro model system for studying drug absorption in gastrointestinal tract. These cells form monolayers with well-developed tight-junctions, and have been evaluated in details as an in vitro model to study both transcellular transport of nutrients and drugs in intestinal lumen.
(§2) Caco-2 cells were obtained from the ATCC (American Type Culture Collection). The cells were maintained in Dulbecco's modified Eagle medium (DMEM) containing 4.5 g/L glucose and 25 mM Hepes, supplemented with 10% fetal calf serum, 100 U/mL penicillin G and […]. The medium was changed every second day. The cells were routinely checked for Mycoplasma in monthly intervals. Caco-2 cells were cultured on semi-permeable membranes to differentiate into a highly functionalized epithelial barrier with remarkable morphological and biochemical similarity to the small intestinal columnar epithelium. The Caco-2 cell monolayers could therefore be used to study the membrane transport properties of many compounds. To trypsinize the cells, the culture dish was washed once with phosphate-buffered saline (PBS) followed by adding trypsine-EDTA for 10 minutes. The trypsinized cells were separated and filtered into single cells using a 35-μm strainer cap (Falcon 2235) before being seeded for further experiments.
(§3) In measuring transport of arginine across the Caco-2 cell monolayer, both sides of the transwells were washed with arginine incubation buffer consisting of: 137 mM NaCl, 10 mM Hepes, 0.3 mM NaH2PO4, 0.3 mM K2HPO4, 5.4 mM KCl, 2.8 mM CaCl2, 1 mM MgSO4, 10 mM glucose, adjusted to pH 7.4. Then, the cell layer was preincubated in the incubation buffer at 37° C. for 1 h. The volume of incubation buffer was 0.2 mL and 0.9 mL in the apical and basolateral chambers, respectively. The cells were replaced with fresh incubation medium in both chambers prior to the transport experiment. The transport experiment was initiated by replacing the incubation solution on the apical side with solution containing 10 mM of L-arginine in which 0.125 μCi/mL of L-[^3H]-arginine was included. At designated time intervals, 10 μL-solution samples were removed from the basolateral side and radioactivity of each sample was counted using a microplate liquid scintillation counter (TopCount, Packard NXT). During the experiment, when a 10 μL-solution sample was removed from the basolateral side every time, 10 μL buffer was supplemented to keep the volume constant. The uptake of [^3H]-mannitol was used to correct for nonspecific transport of molecules across the monolayer membrane. Results were expressed as the nanomoles of arginine transport across the Caco-2 cell monolayers with respect to time in minutes (nmol/min).
The experimental procedures similar to those in Example 2 were used for measuring the uptake of tryptophan molecules across the Caco-2 membrane, except using a tryptophan incubation buffer consisting of 137 mM choline chloride, 10 mM Hepes, 0.6 mM KH2PO4, 5.4 mM KCl, 2.8 mM CaCl2, 1 mM MgSO4, and 10 mM glucose, and having its pH adjusted to 7.4. Results were expressed as the nanomoles of tryptophan transport across the Caco-2 cell monolayers with respect to time in minutes (nmol/min).

Caco2 cells [2] = assay: Folate uptake assay; set-up: key to * (regulatory effect on folate uptake): ↑: the arrows that point up represent the enhancing effect on folate uptake; conditions: compound 0.1 μM; for Uptake rate (folate): 2 days, 5 μM folate, pH 6.0
Procedure: as §1, §2
(§4) Caco-2 cells (5×10^4) were seeded in a 48-well plate and maintained in culture medium (DMEM with 10% FBS, 1% nonessential amino acids, L-glutamine, penicillin G (100 U/mL), streptomycin (10 μg/mL), and amphotericin B (2.5 μg/mL) in a 37° C. incubator for 10 days for the cells to differentiate. The culture medium was changed once every two days. The cells were then washed with PBS before replenishing with the culture medium containing 5% FBS and various astragalosides at the indicated concentrations (0.01, 0.1 and 1 μM) for 48 hours. The Caco2 cells were washed out of remaining glucose with PBS and replaced in the glucose buffer (80 mM NaCl, 100 mM mannitol, 20 mM Tris-HCl, pH 7.4, 3 mM K2HPO4, 1 mM CaCl2, 1 mg/mL BSA) for 1 hour. Glucose uptake was initiated by replacing the glucose buffer with 0.2 ml of glucose buffer containing 2 μCi/mL of ^14C-glucose and unlabeled cold glucose to give a final glucose concentration of 25 mM. Glucose uptake was stopped by removing the glucose buffer and washing with PBS at designated time intervals. The cells were lysed in 0.2 mL of 0.2 N NaOH, and 20 μL of the cell lysate were transferred to the filter-bottomed UniFilter plates (Perkin-Elmer, Wellesley, Mass., USA) and dried in a vacuum oven at 37° C. The bottom of the UniFilter plate was sealed and 25 μL of the counting solution were added into each well. Adhesive plate sealers were used in place of the lids and radioactivity of each sample was counted using the microplate liquid scintillation counter (TopCount, Packard NXT, Packard BioScience Company, Meriden, Conn., USA). The amount of glucose accumulated in the cells was calculated and normalized to protein concentration, and uptake rate was expressed as nanomoles of glucose per minutes per milligram of cell protein (nmol/min/mg). Protein concentration was determined by a standard Bicinchoninic acid (BCA) protein assay. Nonspecific glucose uptake was measured by adding 2 μCi of L-[^14C]-glucose and subtracting from each determination to obtain specific glucose uptake.
The Caco2 cells were subjected to folate uptake test in a manner similar to that described in the glucose uptake assay in Example 1 above. […]

Caco2 cells [3] = assay: Glucose uptake assay; set-up: key to * (regulatory effect on glucose uptake): ↑: the arrows that point up represent the enhancing effect on the glucose uptake; conditions: for Regulatory effects on the glucose uptake of the Caco2 cells: Table 2 summary; for Uptake rate (glucose): 48 hours, 25 mM glucose
Procedure: as §1, §2, §4

Caco-2 cell monolayer [4] = assay: Arginine absorption assay (transport across Caco-2 cell monolayer); set-up: key to * (regulatory effect on arginine transport): ↑: the arrows that point up represent the enhancing effect on the arginine transport; conditions: for Regulatory effects on the arginine transport across the Caco2 cell monolayer: Table 3 summary; for Transport rate (arginine): 10 mM L-arginine apical; for Arginine transport rate: concentration from 0.01 μM to 1 μM
Procedure: as §1, §2, §3

SMILES: CC(C)(O)[C@@H]1CC[C@](C)([C@H]2[C@@H](O)C[C@@]3(C)[C@@H]4C[C@H](O[C@@H]5O[C@H](CO)[C@@H](O)[C@H](O)[C@H]5O)[C@H]5C(C)(C)[C@@H](O[C@@H]6OC[C@@H](O)[C@H](O)[C@H]6O)CC[C@@]56C[C@@]46CC[C@]23C)O1 [AS4, astragaloside IV]
- Regulatory effects on the tryptophan transport across the Caco2 cell monolayer (Caco-2 cell monolayer [1]): had regulatory effects on the tryptophan transport
- * (regulatory effect on tryptophan transport) (Caco-2 cell monolayer [1]; compound 0.01 μM): ↑
- Percentage (tryptophan transport, control = 100) (Caco-2 cell monolayer [1]; compound 0.01 μM): 113.29%
- Transport rate (tryptophan) (Caco-2 cell monolayer [1]; compound 0.01 μM): 10.130 ± 0.7025 nmol/min
- * (regulatory effect on tryptophan transport) (Caco-2 cell monolayer [1]; compound 0.1 μM): ↑
- Percentage (tryptophan transport, control = 100) (Caco-2 cell monolayer [1]; compound 0.1 μM): 142.36%
- Transport rate (tryptophan) (Caco-2 cell monolayer [1]; compound 0.1 μM): 12.730 ± 0.4470 nmol/min
- * (regulatory effect on tryptophan transport) (Caco-2 cell monolayer [1]; compound 1 μM): ↑
- Percentage (tryptophan transport, control = 100) (Caco-2 cell monolayer [1]; compound 1 μM): 108.07%
- Transport rate (tryptophan) (Caco-2 cell monolayer [1]; compound 1 μM): 9.6640 ± 0.2770 nmol/min
- Tryptophan transport rate (Caco-2 cell monolayer [1]): increased
- * (regulatory effect on folate uptake) (Caco2 cells [2]): ↑
- Percentage (folate uptake vs own control) (Caco2 cells [2]): 135.12%
- Uptake rate (folate) (Caco2 cells [2]): 75.710 ± 5.2390 pmol/mg/min
- Glucose uptake rate versus control group (Caco2 cells [3]; FIG. 1, selected concentrations): much higher glucose uptake rate than the control group
- Regulatory effects on the glucose uptake of the Caco2 cells (Caco2 cells [3]): had regulatory effects on the glucose uptake
- * (regulatory effect on glucose uptake) (Caco2 cells [3]; compound 0.01 μM): ↑
- Percentage (glucose uptake, control = 100) (Caco2 cells [3]; compound 0.01 μM): 183.15%
- Uptake rate (glucose) (Caco2 cells [3]; compound 0.01 μM): 11.670 ± 2.5800 nmol/mg/min
- * (regulatory effect on glucose uptake) (Caco2 cells [3]; compound 0.1 μM): ↑
- Percentage (glucose uptake, control = 100) (Caco2 cells [3]; compound 0.1 μM): 164.16%
- Uptake rate (glucose) (Caco2 cells [3]; compound 0.1 μM): 10.460 ± 2.6690 nmol/mg/min
- * (regulatory effect on glucose uptake) (Caco2 cells [3]; compound 1 μM): ↑
- Percentage (glucose uptake, control = 100) (Caco2 cells [3]; compound 1 μM): 141.27%
- Uptake rate (glucose) (Caco2 cells [3]; compound 1 μM): 9.0020 ± 1.8300 nmol/mg/min
- Regulatory effects on the arginine transport across the Caco2 cell monolayer (Caco-2 cell monolayer [4]): had regulatory effects on the arginine transport
- * (regulatory effect on arginine transport) (Caco-2 cell monolayer [4]; compound 0.01 μM): ↑
- Percentage (arginine transport, control = 100) (Caco-2 cell monolayer [4]; compound 0.01 μM): 156.52%
- Transport rate (arginine) (Caco-2 cell monolayer [4]; compound 0.01 μM): 16.7245 ± 0.2890 nmol/min
- * (regulatory effect on arginine transport) (Caco-2 cell monolayer [4]; compound 0.1 μM): ↑
- Percentage (arginine transport, control = 100) (Caco-2 cell monolayer [4]; compound 0.1 μM): 172.73%
- Transport rate (arginine) (Caco-2 cell monolayer [4]; compound 0.1 μM): 18.4575 ± 0.5955 nmol/min
- * (regulatory effect on arginine transport) (Caco-2 cell monolayer [4]; compound 1 μM): ↑
- Percentage (arginine transport, control = 100) (Caco-2 cell monolayer [4]; compound 1 μM): 161.19%
- Transport rate (arginine) (Caco-2 cell monolayer [4]; compound 1 μM): 17.2241 ± 0.3759 nmol/min
- Arginine transport rate (Caco-2 cell monolayer [4]): increased

SMILES: CC(C)(O)[C@@H]1CC[C@](C)([C@H]2[C@@H](O)C[C@@]3(C)[C@@H]4C[C@H](O[C@@H]5O[C@H](CO)[C@@H](O)[C@H](O)[C@H]5O)[C@H]5C(C)(C)[C@@H](O[C@@H]6OC[C@@H](O)[C@H](O)[C@H]6O[C@@H]6O[C@H](CO)[C@@H](O)[C@H](O)[C@H]6O)CC[C@@]56C[C@@]46CC[C@]23C)O1 [AS6, astragaloside VI]
- Regulatory effects on the tryptophan transport across the Caco2 cell monolayer (Caco-2 cell monolayer [1]): had regulatory effects on the tryptophan transport
- * (regulatory effect on tryptophan transport) (Caco-2 cell monolayer [1]; compound 0.01 μM): ↑
- Percentage (tryptophan transport, control = 100) (Caco-2 cell monolayer [1]; compound 0.01 μM): 173.45%
- Transport rate (tryptophan) (Caco-2 cell monolayer [1]; compound 0.01 μM): 15.510 ± 0.3688 nmol/min
- * (regulatory effect on tryptophan transport) (Caco-2 cell monolayer [1]; compound 0.1 μM): ↑
- Percentage (tryptophan transport, control = 100) (Caco-2 cell monolayer [1]; compound 0.1 μM): 151.87%
- Transport rate (tryptophan) (Caco-2 cell monolayer [1]; compound 0.1 μM): 13.850 ± 0.6567 nmol/min
- * (regulatory effect on tryptophan transport) (Caco-2 cell monolayer [1]; compound 1 μM): ↑
- Percentage (tryptophan transport, control = 100) (Caco-2 cell monolayer [1]; compound 1 μM): 173.23%
- Transport rate (tryptophan) (Caco-2 cell monolayer [1]; compound 1 μM): 15.490 ± 0.2161 nmol/min
- Tryptophan transport rate (Caco-2 cell monolayer [1]): increased
- * (regulatory effect on folate uptake) (Caco2 cells [2]): ↑
- Percentage (folate uptake vs own control) (Caco2 cells [2]): 140.37%
- Uptake rate (folate) (Caco2 cells [2]): 84.560 ± 4.7200 pmol/mg/min
- Regulatory effects on the glucose uptake of the Caco2 cells (Caco2 cells [3]): had regulatory effects on the glucose uptake
- * (regulatory effect on glucose uptake) (Caco2 cells [3]; compound 0.01 μM): ↑
- Percentage (glucose uptake, control = 100) (Caco2 cells [3]; compound 0.01 μM): 119.84%
- Uptake rate (glucose) (Caco2 cells [3]; compound 0.01 μM): 7.6360 ± 1.7330 nmol/mg/min
- * (regulatory effect on glucose uptake) (Caco2 cells [3]; compound 0.1 μM): ↑
- Percentage (glucose uptake, control = 100) (Caco2 cells [3]; compound 0.1 μM): 109.97%
- Uptake rate (glucose) (Caco2 cells [3]; compound 0.1 μM): 7.0070 ± 1.9470 nmol/mg/min
- * (regulatory effect on glucose uptake) (Caco2 cells [3]; compound 1 μM): ↑
- Percentage (glucose uptake, control = 100) (Caco2 cells [3]; compound 1 μM): 122.49%
- Uptake rate (glucose) (Caco2 cells [3]; compound 1 μM): 7.8050 ± 1.1830 nmol/mg/min
- Regulatory effects on the arginine transport across the Caco2 cell monolayer (Caco-2 cell monolayer [4]): had regulatory effects on the arginine transport
- * (regulatory effect on arginine transport) (Caco-2 cell monolayer [4]; compound 0.01 μM): ↑
- Percentage (arginine transport, control = 100) (Caco-2 cell monolayer [4]; compound 0.01 μM): 130.35%
- Transport rate (arginine) (Caco-2 cell monolayer [4]; compound 0.01 μM): 13.9283 ± 1.7330 nmol/min
- * (regulatory effect on arginine transport) (Caco-2 cell monolayer [4]; compound 0.1 μM): ↑
- Percentage (arginine transport, control = 100) (Caco-2 cell monolayer [4]; compound 0.1 μM): 140.36%
- Transport rate (arginine) (Caco-2 cell monolayer [4]; compound 0.1 μM): 14.9986 ± 1.3200 nmol/min
- * (regulatory effect on arginine transport) (Caco-2 cell monolayer [4]; compound 1 μM): ↑
- Percentage (arginine transport, control = 100) (Caco-2 cell monolayer [4]; compound 1 μM): 127.22%
- Transport rate (arginine) (Caco-2 cell monolayer [4]; compound 1 μM): 13.5942 ± 1.2760 nmol/min
- Arginine transport rate (Caco-2 cell monolayer [4]): increased
